Laboratory results: PubChem BioAssay AID248 (DTP/NCI, 2004)
“And” between values parts separate entries of the source, which are not always exact repeats. Equal entries are not always repeated. Inconclusive results and toxic doses are left out. Rule as the data show it: active = T/C of 150% or more; inactive = T/C below 125%.

System: L1210 leukemia ip in BDF1 mice, survival T/C
Assay: NCI In Vivo Anticancer Drug Screen. Data for tumor model L1210 Leukemia (intraperitoneal) in B6D2F1 (BDF1) mice
Settings: endpoint: mean survival time, higher = longer survival
Procedure, shortened: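 Read-out is survival time, reported as the treated-group measurement over the vehicle-control measurement.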

[1] = dose: 20.0 mg/kg/injection, schedule: Q01DX009 (ip), vehicle: saline
[2] = dose: 100.0 mg/kg/injection, schedule: Q01DX009 (ip), vehicle: saline
[3] = dose: 100.0 mg/kg/injection, schedule: Q04DX003 (ip), vehicle: saline
[4] = dose: 200.0 mg/kg/injection, schedule: Q04DX003 (ip), vehicle: saline
[5] = dose: 400.0 mg/kg/injection, schedule: Q04DX003 (ip), vehicle: saline
[6] = dose: 100.0 mg/kg/injection, schedule: Q04DX002 (ip), vehicle: saline
[7] = dose: 200.0 mg/kg/injection, schedule: Q04DX002 (ip), vehicle: saline
[8] = dose: 100.0 mg/kg/injection, schedule: Q01DX001 (ip), vehicle: saline
[9] = dose: 200.0 mg/kg/injection, schedule: Q01DX001 (ip), vehicle: saline

Measured: T/C

COc1cc(Br)c(CC2c3cc(OCc4ccccc4)c(OC)cc3CCN2C)cc1OC (stereo unspecified)
inactive: dose: 100.0 mg/kg/injection, schedule: Q04DX003 (ip), vehicle: acetone 112 % of control

NC(N)=NCC(CCN1CCCCC1)c1cccc2ccccc12 (stereo unspecified)
inactive: dose: 5.0 mg/kg/injection, schedule: Q01DX009 (ip), vehicle: saline 105 % of control | dose: 10.0 mg/kg/injection, schedule: Q01DX009 (ip), vehicle: saline 100 % of control | dose: 12.5 mg/kg/injection, schedule: Q04DX002 (ip), vehicle: saline 93 % of control | [1] 106 % of control | dose: 25.0 mg/kg/injection, schedule: Q04DX002 (ip), vehicle: saline 93 % of control

CCOC1=CC(=O)C(C)(CC=C(C)C)C(C)C1 (stereo unspecified)
inactive: dose: 50.0 mg/kg/injection, schedule: Q01DX009 (ip), vehicle: saline with Tween-80 100 % of control | dose: 100.0 mg/kg/injection, schedule: Q01DX009 (ip), vehicle: saline with Tween-80 92 % of control | dose: 200.0 mg/kg/injection, schedule: Q01DX009 (ip), vehicle: saline with Tween-80 96 % of control

NC(CSCCc1ccccn1)C(=O)O (stereo unspecified)
inactive: [2] 107 % of control | [3] 101 % of control | dose: 200.0 mg/kg/injection, schedule: Q01DX009 (ip), vehicle: saline 104 % of control | [4] 104 % of control | dose: 400.0 mg/kg/injection, schedule: Q01DX009 (ip), vehicle: saline 105 % of control | [5] 94 % of control

O=C(OCc1ccccc1)C1CCCN1 (stereo unspecified)
inactive: dose: 25.0 mg/kg/injection, schedule: Q01DX009 (ip), vehicle: water 104 % of control | dose: 25.0 mg/kg/injection, schedule: Q04DX003 (ip), vehicle: water 109 % of control | dose: 50.0 mg/kg/injection, schedule: Q01DX009 (ip), vehicle: water 97 % of control | dose: 50.0 mg/kg/injection, schedule: Q04DX003 (ip), vehicle: water 96 % of control | dose: 100.0 mg/kg/injection, schedule: Q01DX009 (ip), vehicle: water 97 % of control | [6] 100 % of control | dose: 100.0 mg/kg/injection, schedule: Q04DX003 (ip), vehicle: water 102 % of control | dose: 200.0 mg/kg/injection, schedule: Q01DX009 (ip), vehicle: water 102 % of control | [7] 96 % of control | dose: 200.0 mg/kg/injection, schedule: Q04DX003 (ip), vehicle: water 102 % of control | dose: 400.0 mg/kg/injection, schedule: Q01DX009 (ip), vehicle: water 103 % of control | dose: 400.0 mg/kg/injection, schedule: Q04DX003 (ip), vehicle: water 109 % of control

O=CC(O)C(O)C(O)C(O)COC(=S)OCC(O)C(O)C(O)C(O)C=O (stereo unspecified) (tested in a mixture with another compound)
inactive: [6] 110 % of control | [7] 100 % of control | dose: 400.0 mg/kg/injection, schedule: Q04DX002 (ip), vehicle: saline 95 % of control

C=CCN(CCN(CC)CC)C(=O)C(O)(c1ccccc1)c1ccccc1
inactive: dose: 100.0 mg/kg/injection, schedule: Q04DX002 (ip), vehicle: saline with Tween-80 93 % of control | dose: 200.0 mg/kg/injection, schedule: Q04DX002 (ip), vehicle: saline with Tween-80 93 % of control | dose: 400.0 mg/kg/injection, schedule: Q04DX002 (ip), vehicle: saline with Tween-80 95 % of control

CC(CN1CCN(CCOCCO)CC1)CN1c2ccccc2Sc2ccc(Cl)cc21 (stereo unspecified)
inactive: dose: 0.09 mg/kg/injection, schedule: Q01DX009 (ip), vehicle: saline 114 % of control | dose: 0.39 mg/kg/injection, schedule: Q01DX009 (ip), vehicle: saline 94 % of control | dose: 0.78 mg/kg/injection, schedule: Q01DX009 (ip), vehicle: saline 96 % of control | dose: 0.78 mg/kg/injection, schedule: Q04DX003 (ip), vehicle: saline 108 % of control | dose: 1.56 mg/kg/injection, schedule: Q01DX009 (ip), vehicle: saline 114 % of control | dose: 1.56 mg/kg/injection, schedule: Q04DX003 (ip), vehicle: saline 110 % of control | dose: 3.12 mg/kg/injection, schedule: Q04DX003 (ip), vehicle: saline 106 % of control | dose: 6.25 mg/kg/injection, schedule: Q04DX003 (ip), vehicle: saline 105 % of control | dose: 12.5 mg/kg/injection, schedule: Q04DX003 (ip), vehicle: saline 111 % of control

CCN(CC)CCCC(C)Nc1c(C)cnc2cc(Cl)c(C)cc12 (stereo unspecified)
inactive: dose: 50.0 mg/kg/injection, schedule: Q01DX001 (ip), vehicle: saline 112 % of control | [8] 95 % of control | [9] 101 % of control

CCCCOCC(C)O (stereo unspecified)
inactive: [3] 91 % of control | [4] 96 % of control | [5] 96 % of control

O=C(Nc1cccc(C(F)(F)F)c1)Nc1ccc([N+](=O)[O-])cc1Cl
inactive: dose: 100.0 mg/kg/injection, schedule: Q01DX009 (ip), vehicle: gum acacia 88 % of control | dose: 200.0 mg/kg/injection, schedule: Q01DX009 (ip), vehicle: gum acacia 97 % of control | dose: 400.0 mg/kg/injection, schedule: Q01DX009 (ip), vehicle: gum acacia 96 % of control

CCN(CC)C(=O)OCCN1C(=O)C2C3CCC(O3)C2C1=O (stereo unspecified)
inactive: dose: 100.0 mg/kg/injection, schedule: Q04DX003 (ip), vehicle: Klucel (hydroxypropylcellulose) (HPC) 93 % of control | dose: 200.0 mg/kg/injection, schedule: Q04DX003 (ip), vehicle: Klucel (hydroxypropylcellulose) (HPC) 92 % of control | dose: 400.0 mg/kg/injection, schedule: Q04DX003 (ip), vehicle: Klucel (hydroxypropylcellulose) (HPC) 93 % of control

O=C(CNC(=O)c1ccccc1)Nc1ccccc1
inactive: [8] 105 % of control | [9] 97 % of control | dose: 400.0 mg/kg/injection, schedule: Q01DX001 (ip), vehicle: saline 97 % of control

COc1ccc(/C=C/c2cc[n+](C)cc2)cc1
inactive: dose: 12.5 mg/kg/injection, schedule: Q04DX003 (ip), vehicle: saline with Tween-80 97 % of control | dose: 25.0 mg/kg/injection, schedule: Q04DX003 (ip), vehicle: saline with Tween-80 94 % of control | dose: 50.0 mg/kg/injection, schedule: Q04DX003 (ip), vehicle: saline with Tween-80 94 % of control

CC1(C)N=C(N)N=C(N)N1c1ccc(CCC(=O)Nc2cccc(S(=O)(=O)F)c2)cc1
inactive: dose: 0.8 mg/kg/injection, schedule: Q01DX009 (ip), vehicle: saline 98 % of control | dose: 4.0 mg/kg/injection, schedule: Q01DX009 (ip), vehicle: saline 106 % of control | [1] 108 % of control | dose: 25.0 mg/kg/injection, schedule: Q#A X018 (ip), vehicle: saline 119 % of control | dose: 50.0 mg/kg/injection, schedule: Q01DX009 (ip), vehicle: saline 111 % of control | dose: 50.0 mg/kg/injection, schedule: Q#A X018 (ip), vehicle: saline 113 % of control | [2] 112 % of control and 122 % of control | dose: 100.0 mg/kg/injection, schedule: Q#A X018 (ip), vehicle: saline 88 % of control

CSc1ncc(C(N)=O)c(N)n1
inactive: dose: 222.0 mg/kg/injection, schedule: Q01DX Z (ip), vehicle: saline 102 % of control | dose: 333.0 mg/kg/injection, schedule: Q01DX Z (ip), vehicle: saline 89 % of control | dose: 500.0 mg/kg/injection, schedule: Q01DX Z (ip), vehicle: saline 95 % of control
